Source: article PMC6248945, “Antibacterial properties of the pituitary adenylate cyclase-activating polypeptide: A new human antimicrobial peptide” (PLoS ONE, 2018)
Converted amounts (≈) assume the structure as drawn. Read-outs that look alike come from different tables or passages of the source. Where a SMILES comes first, the peptide text is derived from it.

Key:
Escherichia coli (JM109) = assay: MIC, CLSI microdilution; assay type: cell-based; details: MHB, 37 °C, 20h, OD read-out, at least triplicate
Protocol: Assays were performed according to the CLSI microdilution method. Briefly, the bacterial strains were inoculated and allowed to reach an OD600 of 0.08–0.13 prior to dilution to 10^6 CFU/mL in Mueller-Hinton broth (MHB). A bacterial suspension (50 μL) was then added to each well of a 96-well microplate containing serially diluted peptide solutions (50 μL in MHB) and incubated at 37 °C for 20h. A well containing sterilized medium was used as a sterility control and another well containing no added peptide served as a growth control.

[1] = tested on: Pseudomonas putida (KT2440); details: 20 h
[2] = tested on: Pseudomonas fluorescens (MF37); details: 20 h
[3] = tested on: Pseudomonas aeruginosa (PA14); details: PA14, 20 h
[4] = tested on: Burkholderia cenocepacia (J2315); details: 20 h
[5] = tested on: Burkholderia thailendensis (ATCC700388); details: CLSI microdilution, MHB, 37 °C, 20h, OD read-out; at least triplicate
[6] = tested on: Serratia marcescens (ATCC14756); details: ATCC14756, 20 h
[7] = tested on: Bacillus circulans (LSPQ3543); details: 20 h
[8] = tested on: Bacillus cereus (ATCC11778); details: ATCC11778, 20 h
[9] = tested on: Actinobacillus pleuropneumoniae (4074); details: 20 h
Bacillus subtilis (PY79) = details: PY79, 20 h
Bacillus velezensis = details: 20 h
[10] = tested on: Bacillus amyloliquefaciens (LMG22478); details: LMG22478, 20 h
[11] = tested on: Staphylococcus aureus (ATCC6538#P); details: ATCC6538, 20 h
[12] = tested on: Staphylococcus aureus (Newman); details: 20 h
[13] = tested on: Pseudomonas aeruginosa (ATCC33350-Sero-2); details: ATCC33350, 20 h
[14] = tested on: Escherichia coli ATCC25922; details: ATCC25922, 20 h
[15] = tested on: Escherichia coli (O157 :H7); details: CLSI microdilution, MHB, 37 °C, 20h, OD read-out; at least triplicate
[16] = tested on: Burkholderia cenocepacia (K56-2); details: 20 h
[17] = tested on: Burkholderia cenocepacia (LMG18829); details: LMG18829, 20 h
[18] = tested on: Burkholderia cenocepacia (LMG19240); details: CLSI microdilution, MHB, 37 °C, 20h, OD read-out; at least triplicate
[19] = tested on: Burkholderia cenocepacia (CEP0511 Gvar3b); details: CLSI microdilution, MHB, 37 °C, 20h, OD read-out; at least triplicate
DPP-IV = tested on: DPP-IV; parameters: method as in PMID 18353507; details: cited from earlier work
[20] = relative to PACAP38; cited from earlier work

Compound | MIC, Escherichia coli (JM109) (Escherichia coli (JM109)) [µg/mL] | MIC, Pseudomonas putida (KT2440) [1] [µg/mL] | MIC, Pseudomonas fluorescens (MF37) [2] [µg/mL] | MIC, Pseudomonas aeruginosa (PA14) [3] [µg/mL] | MIC, Burkholderia cenocepacia (J2315) [4] [µg/mL] | MIC, Burkholderia thailendensis (ATCC700388) [5] [µg/mL] | MIC, Serratia marcescens (ATCC14756) [6] [µg/mL] | MIC, Bacillus circulans (LSPQ3543) [7] [µg/mL] | MIC, Bacillus cereus (ATCC11778) [8] [µg/mL] | MIC, Actinobacillus pleuropneumoniae [9] [µg/mL] | MIC, Bacillus subtilis (PY79) (Bacillus subtilis (PY79)) [µg/mL] | MIC, Bacillus velezensis (Bacillus velezensis) [µg/mL] | MIC, Bacillus amyloliquefaciens [10] [µg/mL] | MIC, Staphylococcus aureus (ATCC6538#P) [11] [µg/mL] | MIC, Staphylococcus aureus (Newman) [12] [µg/mL] | MIC, Pseudomonas aeruginosa (ATCC33350-Sero-2) [13] [µg/mL] | MIC, Escherichia coli ATCC25922 [14] [µg/mL] | MIC, Escherichia coli (O157 :H7) [15] [µg/mL] | MIC, Burkholderia cenocepacia (K56-2) [16] [µg/mL] | MIC, Burkholderia cenocepacia (LMG18829) [17] [µg/mL] | other results
CC[C@H](C)[C@H](NC(=O)CNC(=O)[C@H](CC(=O)O)NC(=O)[C@H](CO)NC(=O)[C@@H](N)Cc1c[nH]cn1)C(=O)N[C@@H](Cc1ccccc1)C(=O)N[C@H](C(=O)N[C@@H](CC(=O)O)C(=O)N[C@@H](CO)C(=O)N[C@@H](Cc1ccc(O)cc1)C(=O)N[C@@H](CO)C(=O)N[C@@H](CCCNC(=N)N)C(=O)N[C@@H](Cc1ccc(O)cc1)C(=O)N[C@@H](CCCNC(=N)N)C(=O)N[C@@H](CCCCN)C(=O)N[C@@H](CCC(N)=O)C(=O)N[C@@H](CCSC)C(=O)N[C@@H](C)C(=O)N[C@H](C(=O)N[C@@H](C)C(=O)N[C@@H](CCCCN)C(=O)N[C@@H](Cc1ccc(O)cc1)C(=O)N[C@@H](CC(C)C)C(=O)N[C@@H](C)C(=O)N[C@@H](C)C(=O)N[C@H](C(=O)N[C@@H](CC(C)C)C(=O)NCC(=O)N[C@@H](CCCCN)C(=O)N[C@@H](CCCNC(=N)N)C(=O)N[C@@H](Cc1ccc(O)cc1)C(=O)N[C@@H](CCCCN)C(=O)N[C@@H](CCC(N)=O)C(=O)N[C@@H](CCCNC(=N)N)C(=O)N[C@H](C(=O)N[C@@H](CCCCN)C(=O)N[C@@H](CC(N)=O)C(=O)N[C@@H](CCCCN)C(N)=O)C(C)C)C(C)C)C(C)C)[C@@H](C)O [compound 4, [Ala^20]PACAP38] (H-HSDGIFTDSYSRYRKQMAVAKYLAAVLGKRYKQRVKNK-NH2) | 28 (≈ 6.25 µM) | 56 (≈ 12.5 µM) | 112 (≈ 25 µM) | 112 (≈ 25 µM) | 5 (≈ 1.12 µM) | >200 | >200 | 47 (≈ 10.5 µM) | >200 | >200 | 3 (≈ 0.67 µM) | 61 (≈ 13.6 µM) | 7 (≈ 1.56 µM) | >200 | >200 | >200 | >200 | 168 (≈ 37.5 µM) | >200 | >200 | MIC, Burkholderia cenocepacia (LMG19240) [18]: >200 µg/mL; MIC, Burkholderia cenocepacia (CEP0511 Gvar3b) [19]: >200 µg/mL; MIC, Bacillus subtilis (2597) (Bacillus subtilis (2597); CLSI microdilution, MHB, 37 °C, 20h, OD read-out, at least triplicate): 168 µg/mL (≈ 37.5 µM); Metabolic stability against DPP-IV (DPP-IV): improved metabolic stability; Metabolic stability in human plasma [20]: improved metabolic stability
CC[C@H](C)[C@H](NC(=O)CNC(=O)[C@H](CC(=O)O)NC(=O)[C@H](CO)NC(=O)[C@@H](N)Cc1c[nH]cn1)C(=O)N[C@@H](Cc1ccccc1)C(=O)N[C@H](C(=O)N[C@@H](CC(=O)O)C(=O)N[C@@H](CO)C(=O)N[C@@H](Cc1ccc(O)cc1)C(=O)N[C@@H](CO)C(=O)N[C@@H](CCCNC(=N)N)C(=O)N[C@@H](Cc1ccc(O)cc1)C(=O)N[C@@H](CCCNC(=N)N)C(=O)N[C@@H](CCCCN)C(=O)N[C@@H](CCC(N)=O)C(=O)N[C@@H](CCSC)C(=O)N[C@@H](C)C(=O)N[C@H](C(=O)N[C@@H](CCCCN)C(=O)N[C@@H](C)C(=O)N[C@@H](Cc1ccc(O)cc1)C(=O)N[C@@H](CC(C)C)C(=O)N[C@@H](C)C(=O)N[C@@H](C)C(=O)N[C@H](C(=O)N[C@@H](CC(C)C)C(=O)NCC(=O)N[C@@H](CCCCN)C(=O)N[C@@H](CCCNC(=N)N)C(=O)N[C@@H](Cc1ccc(O)cc1)C(=O)N[C@@H](CCCCN)C(=O)N[C@@H](CCC(N)=O)C(=O)N[C@@H](CCCNC(=N)N)C(=O)N[C@H](C(=O)N[C@@H](CCCCN)C(=O)N[C@@H](CC(N)=O)C(=O)N[C@@H](CCCCN)C(N)=O)C(C)C)C(C)C)C(C)C)[C@@H](C)O [compound 5, [Ala^21]PACAP38] (H-HSDGIFTDSYSRYRKQMAVKAYLAAVLGKRYKQRVKNK-NH2) | 112 (≈ 25 µM) | 186 (≈ 41.5 µM) | >200 | >200 | 20 (≈ 4.47 µM) | >200 | >200 | 84 (≈ 18.8 µM) | >200 | >200 | 42 (≈ 9.38 µM) | 168 (≈ 37.5 µM) | 20 (≈ 4.47 µM) | >200 | >200 | >200 | >200 | >200 | >200 | >200 | MIC, Burkholderia cenocepacia (LMG19240) [18]: >200 µg/mL; MIC, Burkholderia cenocepacia (CEP0511 Gvar3b) [19]: >200 µg/mL; MIC, Bacillus subtilis (2597) (Bacillus subtilis (2597); 2597, 20 h): 56 µg/mL (≈ 12.5 µM); Metabolic stability against DPP-IV (DPP-IV): improved metabolic stability; Metabolic stability in human plasma [20]: improved metabolic stability
CCCCCC(=O)N[C@@H](Cc1c[nH]cn1)C(=O)N[C@@H](CO)C(=O)N[C@@H](CC(=O)O)C(=O)NCC(=O)N[C@H](C(=O)N[C@@H](Cc1ccccc1)C(=O)N[C@H](C(=O)N[C@@H](CC(=O)O)C(=O)N[C@@H](CO)C(=O)N[C@@H](Cc1ccc(O)cc1)C(=O)N[C@@H](CO)C(=O)N[C@@H](CCCNC(=N)N)C(=O)N[C@@H](Cc1ccc(O)cc1)C(=O)N[C@@H](CCCNC(=N)N)C(=O)N[C@@H](CCCCN)C(=O)N[C@@H](CCC(N)=O)C(=O)N[C@@H](CCSC)C(=O)N[C@@H](C)C(=O)N[C@H](C(=O)N[C@@H](CCCCN)C(=O)N[C@@H](CCCCN)C(=O)N[C@@H](Cc1ccc(O)cc1)C(=O)N[C@@H](CC(C)C)C(=O)N[C@@H](C)C(=O)N[C@@H](C)C(=O)N[C@H](C(=O)N[C@@H](CC(C)C)C(=O)NCC(=O)N[C@@H](CCCCN)C(=O)N[C@@H](CCCNC(=N)N)C(=O)N[C@@H](Cc1ccc(O)cc1)C(=O)N[C@@H](CCCCN)C(=O)N[C@@H](CCC(N)=O)C(=O)N[C@@H](CCCNC(=N)N)C(=O)N[C@H](C(=O)N[C@@H](CCCCN)C(=O)N[C@@H](CC(N)=O)C(=O)N[C@@H](CCCCN)C(N)=O)C(C)C)C(C)C)C(C)C)[C@@H](C)O)[C@@H](C)CC [compound 2, N-hexanoyl-PACAP38] | 116 (≈ 25 µM) | 77 (≈ 16.6 µM) | >200 | >200 | 10 (≈ 2.16 µM) | >200 | >200 | 58 (≈ 12.5 µM) | >200 | 232 (≈ 50.1 µM) | 12 (≈ 2.59 µM) | 87 (≈ 18.8 µM) | 26 (≈ 5.61 µM) | >200 | >200 | >200 | >200 | >200 | >200 | >200 | MIC, Burkholderia cenocepacia (LMG19240) [18]: >200 µg/mL; MIC, Burkholderia cenocepacia (CEP0511 Gvar3b) [19]: >200 µg/mL; MIC, Bacillus subtilis (2597) (Bacillus subtilis (2597); 2597, 20 h): 154 µg/mL (≈ 33.2 µM); Metabolic stability against DPP-IV (DPP-IV): improved metabolic stability; Metabolic stability in human plasma [20]: improved metabolic stability
